In patent publication US20230080054A1 (ILDONG PHARMACEUTICAL CO., LTD., priority 2021, published 2023):

Assays:
human ANO6 [1] = molecular target: T1, human ANO6 (Homo sapiens, UniProt Q4KMQ2); experiment: LACT C2 assay (phosphatidylserine scramblase function assay); type: cell-based; settings: FRT cells expressing human ANO6, 10 μM ionomycin; for inhibition at 0.1 µM: test compound 100 nM, read-out: Inhibition Level 100 nM; for inhibition at 1 µM: test compound 1 μM, read-out: Inhibition Level 1 μM
T1 construct: expressed in transfected cells
T1 sequence (Q4KMQ2 1-931 isoform Q4KMQ2-2): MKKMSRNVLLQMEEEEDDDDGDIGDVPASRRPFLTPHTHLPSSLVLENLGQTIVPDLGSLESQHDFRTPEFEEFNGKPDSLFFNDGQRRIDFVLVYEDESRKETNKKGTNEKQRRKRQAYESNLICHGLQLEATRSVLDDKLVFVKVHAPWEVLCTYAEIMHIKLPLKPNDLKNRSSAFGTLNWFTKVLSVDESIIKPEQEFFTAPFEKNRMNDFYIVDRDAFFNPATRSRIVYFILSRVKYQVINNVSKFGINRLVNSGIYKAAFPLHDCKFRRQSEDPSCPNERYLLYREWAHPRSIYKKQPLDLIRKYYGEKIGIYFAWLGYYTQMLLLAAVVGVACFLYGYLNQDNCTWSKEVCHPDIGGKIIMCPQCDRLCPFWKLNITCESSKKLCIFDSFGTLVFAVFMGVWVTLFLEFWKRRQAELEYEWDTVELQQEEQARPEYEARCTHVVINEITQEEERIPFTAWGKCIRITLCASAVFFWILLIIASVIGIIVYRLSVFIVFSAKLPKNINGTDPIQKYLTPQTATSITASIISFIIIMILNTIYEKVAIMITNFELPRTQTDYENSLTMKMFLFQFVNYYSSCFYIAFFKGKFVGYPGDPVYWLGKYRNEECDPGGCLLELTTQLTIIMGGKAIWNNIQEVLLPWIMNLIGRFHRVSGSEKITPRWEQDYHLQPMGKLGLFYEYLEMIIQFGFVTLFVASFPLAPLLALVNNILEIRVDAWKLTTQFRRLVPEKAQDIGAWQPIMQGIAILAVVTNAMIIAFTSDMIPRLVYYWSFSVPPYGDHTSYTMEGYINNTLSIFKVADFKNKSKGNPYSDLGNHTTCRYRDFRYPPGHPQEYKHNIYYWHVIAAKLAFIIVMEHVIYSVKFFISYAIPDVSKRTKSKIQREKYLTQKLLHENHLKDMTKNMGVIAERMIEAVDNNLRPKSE
Summary of the method: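 FRT cells stably expressing human ANO6 were pretreated with compound (1% DMSO) for 10 min, then stimulated with 10 μM ionomycin for 10 min. Surface phosphatidylserine was stained with 500 nM Lact-C2-GFP and quantified by imaging. Inhibition was scaled between unstimulated (100%) and ionomycin-only (0%) controls, averaged over triplicates.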

human ANO6 [2] = molecular target: T1, human ANO6; experiment: YFP quenching assay (ANO6 ion channel activity); type: cell-based; settings: 10 μM ionomycin; for inhibition at 1 µM: test compound 1 μM, read-out: Inhibition Level 1 μM; for inhibition at 30 µM: test compound 30 μM, read-out: Inhibition Level 30 μM
Summary of the method: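 FRT cells stably expressing human ANO6 and YFP-H148Q/I152L/F46L, preincubated 10 min at 40° C with compounds (1% DMSO) in PBS. Quench read every 0.4 s after injecting 140 mM SCN- with 10 μM ionomycin; % inhibition from the 3.6–7.6 s fluorescence difference, normalised to no-ionomycin (100%) and ionomycin-only (0%) wells, duplicate or triplicate.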

Row | inhibition at 0.1 µM (human ANO6 [1]) | inhibition at 1 µM (human ANO6 [1]) | inhibition at 1 µM (human ANO6 [2]) | inhibition at 30 µM (human ANO6 [2]) | SMILES
1 | < 30% | ≥ 60% | ≥ 60% |  | O=C(Nc1cccc(F)c1)c1cccc(Nc2ncc(-c3ccccc3)cn2)c1 [Compound 116, N-(3-fluorophenyl)-3-[(5-phenylpyrimidin-2-yl)amino]benzamide]
2 | < 30% | < 30% | ≥ 60% |  | O=C(N[C@@H]1C[C@H]1c1ccccc1)c1cccc(Nc2ncc(-c3ccccc3)cn2)c1 [Compound 117, N-[(1R,2S)-2-phenylcyclopropyl]-3-[(5-phenylpyrimidin-2-yl)amino]benzamide]
3 | < 30% | < 30% | < 30% |  | O=C(NC1CCN(Cc2ccccc2)CC1)c1cccc(Nc2ncc(-c3ccccc3)cn2)c1 [Compound 120, N-(1-benzylpiperidin-4-yl)-3-[(5-phenylpyrimidin-2-yl)amino]benzamide]
4 |  | 30 to 60% | ≥ 60% |  | O=C(NCCc1ccccc1)c1cccc(Nc2ccc(-c3cccc(F)c3)cn2)c1 [Compound 121, 3-{[5-(3-fluorophenyl)pyridin-2-yl]amino}-N-(2-phenylethyl)benzamide]
5 | < 30% | ≥ 60% | ≥ 60% |  | Cc1ccc(CNC(=O)c2cccc(Nc3ccc(-c4cccc(F)c4)cn3)c2)o1 [Compound 125, 3-{[5-(3-fluorophenyl)pyridin-2-yl]amino}-N-[(5-methylfuran-2-yl)methyl]benzamide]
6 | < 30% | < 30% | 30 to 60% | ≥ 60% | Cc1ccc(CNC(=O)c2cccc(Nc3ccc(-c4ccc(F)cc4)nn3)c2)o1 [Compound A1]
7 | < 30% | < 30% | ≥ 60% | ≥ 60% | O=C(NC1CCCCC1)c1cccc(Nc2ccc(-c3ccc(F)cc3)nn2)c1 [Compound A2]
8 | < 30% | ≥ 60% | ≥ 60% | ≥ 60% | O=C(NC1CCCCCC1)c1cccc(Nc2ccc(-c3ccc(F)cc3)nn2)c1 [Compound A3]
9 | < 30% | < 30% | ≥ 60% | ≥ 60% | O=C(NCCc1ccccc1)c1cccc(Nc2ccc(-c3ccc(F)cc3)nn2)c1 [Compound A4]
10 | < 30% | < 30% | ≥ 60% | ≥ 60% | Cc1cccc(CNC(=O)c2cccc(Nc3ccc(-c4ccc(F)cc4)nn3)c2)c1 [Compound A5]
11 | < 30% | < 30% | ≥ 60% | ≥ 60% | O=C(NCCCc1ccccc1)c1cccc(Nc2ccc(-c3ccc(F)cc3)nn2)c1 [Compound A6]
12 | < 30% | < 30% | ≥ 60% | ≥ 60% | Cc1ccc(CNC(=O)c2cccc(Nc3ccc(-c4ccccc4)nn3)c2)o1 [Compound A8]
13 | < 30% | < 30% | ≥ 60% | ≥ 60% | CCCCNC(=O)c1cccc(Nc2ccc(-c3ccc(F)cc3)nn2)c1 [Compound A10]
14 | < 30% | < 30% | ≥ 60% | ≥ 60% | CC(C)CNC(=O)c1cccc(Nc2ccc(-c3ccc(F)cc3)nn2)c1 [Compound A11]
15 | < 30% | < 30% | ≥ 60% | ≥ 60% | CC(C)NC(=O)c1cccc(Nc2ccc(-c3ccccc3)nn2)c1 [Compound A12]
16 | < 30% | 30 to 60% | ≥ 60% | ≥ 60% | CC(C)CCNC(=O)c1cccc(Nc2ccc(-c3ccc(F)cc3)nn2)c1 [Compound A13]
17 | < 30% | < 30% | ≥ 60% | ≥ 60% | O=C(NC1CCCC1)c1cccc(Nc2ccc(-c3ccc(F)cc3)nn2)c1 [Compound A14]
18 | < 30% | 30 to 60% | ≥ 60% | ≥ 60% | O=C(Nc1cccc(F)c1)c1cccc(Nc2ccc(-c3ccc(F)cc3)nn2)c1 [Compound A15]

Row | inhibition at 0.1 µM (human ANO6 [1]) | inhibition at 1 µM (human ANO6 [1]) | inhibition at 1 µM (human ANO6 [2]) | inhibition at 30 µM (human ANO6 [2]) | SMILES
19 | < 30% | < 30% | 30 to 60% | ≥ 60% | O=C(NCc1ccccc1)c1cccc(Nc2ccc(-c3ccc(F)cc3)nn2)c1 [Compound A16]
20 | < 30% | < 30% | ≥ 60% | ≥ 60% | Cc1ccc(CNC(=O)c2cccc(Nc3ccc(-c4ccc(F)cc4)nn3)c2)cc1 [Compound A22]
21 |  | 30 to 60% | ≥ 60% | ≥ 60% | O=C(NCc1ccc(F)cc1)c1cccc(Nc2ccc(-c3ccccc3)nn2)c1 [Compound A24]
22 | < 30% | < 30% | 30 to 60% | ≥ 60% | O=C(NCc1ccc(Br)cc1)c1cccc(Nc2ccc(-c3ccc(F)cc3)nn2)c1 [Compound A26]
23 | < 30% | < 30% | 30 to 60% | ≥ 60% | CSc1ccc(CNC(=O)c2cccc(Nc3ccc(-c4ccc(F)cc4)nn3)c2)cc1 [Compound A27]
24 | < 30% | < 30% | ≥ 60% | ≥ 60% | Cc1cccc(-c2ccc(Nc3cccc(C(=O)NCC(C)C)c3)nn2)c1 [Compound A32]
25 | < 30% | < 30% | ≥ 60% | ≥ 60% | O=C(NCc1ccccc1)c1cccc(Nc2ccc(-c3cccc(F)c3)nn2)c1 [Compound A34]
26 | < 30% | < 30% | ≥ 60% | ≥ 60% | Cc1ccccc1CNC(=O)c1cccc(Nc2ccc(-c3ccc(F)cc3)nn2)c1 [Compound A35]
27 | < 30% | < 30% | ≥ 60% | ≥ 60% | CC(C)c1ccc(CNC(=O)c2cccc(Nc3ccc(-c4ccc(F)cc4)nn3)c2)cc1 [Compound A36]
28 | 30 to 60% | ≥ 60% | ≥ 60% | ≥ 60% | CCCCCCNC(=O)c1cccc(Nc2ccc(-c3ccccc3)nn2)c1 [Compound A37]
29 | ≥ 60% | ≥ 60% | ≥ 60% | ≥ 60% | CCCCCCCNC(=O)c1cccc(Nc2ccc(-c3ccccc3)nn2)c1 [Compound A38]
30 | ≥ 60% | ≥ 60% | 30 to 60% | ≥ 60% | O=C(NC1CCCCCC1)c1cccc(Nc2ccc(-c3ccccc3)nn2)c1 [Compound A39]
31 | < 30% | ≥ 60% | ≥ 60% | ≥ 60% | O=C(NCCC1=CCCCC1)c1cccc(Nc2ccc(-c3ccccc3)nn2)c1 [Compound A40]
32 | < 30% | 30 to 60% | 30 to 60% | ≥ 60% | CCN(CCNC(=O)c1cccc(Nc2ccc(-c3ccccc3)nn2)c1)Cc1ccccc1 [Compound A41]
33 | < 30% | 30 to 60% | ≥ 60% | ≥ 60% | O=C(NCc1ccc(Br)cc1)c1cccc(Nc2ccc(-c3ccccc3)nn2)c1 [Compound A43]
34 | < 30% | 30 to 60% | 30 to 60% | ≥ 60% | CSc1ccc(CNC(=O)c2cccc(Nc3ccc(-c4ccccc4)nn3)c2)cc1 [Compound A44]
35 | 30 to 60% | ≥ 60% | ≥ 60% | ≥ 60% | O=C(NCCc1ccc(Cl)cc1)c1cccc(Nc2ccc(-c3ccccc3)nn2)c1 [Compound A45]
